Test results reported in ChEMBL document CHEMBL1201862, “PubChem BioAssay data set” (2004).
Activity calls are given as the source filed them.

Tests used:
[1] = cytotoxicity toward DRD oncogenic fibroblasts, dose response, cell-based, non-viral oncogenic, luminescence (AID 1934); format: functional; settings: Homo sapiens
[2] = HeLa cell cytotoxicity, dose response, cytotoxicity control for MgcRacGAP inhibitor project (AID 624300); format: functional
[3] = test system: BJ; assay: cytotoxicity toward Ras-transformed BJeLR fibroblasts, dose response, cell-based, alamar blue fluorescence, cherrypicked samples (AID 2631); format: functional; settings: Homo sapiens;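 further: confirmatory dose-response assay in RAS-dependent BJ fibroblasts engineered with TERT, LT and ST, with cytotoxicity read by fluorescence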
[4] = growth suppression of beta-catenin-knockout colon cells, dose response, cell-based, HCT116, human colon tumor (AID 1045); format: functional;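 further: HCT116 colon tumor cells with beta catenin knocked out; cells exposed to compound for 60 hours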
[5] = test system: BJ; assay: cytotoxicity toward BJ-TERT fibroblasts, dose response, cell-based, RAS-independent, luminescence (AID 1933); format: functional; settings: Homo sapiens
[6] = test system: INS1; assay: beta cell apoptosis inhibitors, cytokine rescue, dose response, luminescence, retest (AID 449756); format: functional, cell-based; settings: Rattus norvegicus;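 further: cell death triggered by IL-1 beta plus TNF-alpha plus IFN-gamma mixture; protective hits raise ATP signal compared with cytokine alone wells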
[7] = molecular target: T1, Rac GTPase-activating protein 1 (Homo sapiens, UniProt Q9H0H5); assay: MgcRacGAP GTPase-activating activity inhibitors, confirmation, biochemical, ADP Hunter fluorescence, primary and confirmatory (AID 624330); format: functional
T1 sequence (Q9H0H5 whole entry): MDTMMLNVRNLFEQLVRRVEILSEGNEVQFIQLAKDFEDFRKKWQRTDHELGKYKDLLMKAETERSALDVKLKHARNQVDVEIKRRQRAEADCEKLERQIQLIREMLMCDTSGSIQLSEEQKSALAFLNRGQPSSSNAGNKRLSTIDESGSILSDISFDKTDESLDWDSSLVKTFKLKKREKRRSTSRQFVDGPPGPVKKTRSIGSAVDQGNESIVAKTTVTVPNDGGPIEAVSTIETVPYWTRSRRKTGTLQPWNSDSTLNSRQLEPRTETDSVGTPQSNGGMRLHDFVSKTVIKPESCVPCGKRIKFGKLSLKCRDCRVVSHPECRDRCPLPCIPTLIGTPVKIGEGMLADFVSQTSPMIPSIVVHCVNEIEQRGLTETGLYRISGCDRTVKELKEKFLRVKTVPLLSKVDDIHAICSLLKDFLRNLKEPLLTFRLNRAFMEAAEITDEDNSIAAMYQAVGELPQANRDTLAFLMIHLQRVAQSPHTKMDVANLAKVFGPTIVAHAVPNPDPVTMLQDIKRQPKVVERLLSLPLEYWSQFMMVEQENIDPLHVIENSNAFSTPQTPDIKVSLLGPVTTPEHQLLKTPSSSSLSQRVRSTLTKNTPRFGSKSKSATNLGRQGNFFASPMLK

[8] = molecular target: C-C chemokine receptor type 6 (Homo sapiens, UniProt P51684); assay: CCR6 receptor antagonists, dose response, cell-based, luminescent beta-arrestin readout (AID 504728); format: functional
[9] = molecular target: Beta Lactamase (Pseudomonas aeruginosa, UniProt Q932Y6); assay: beta-lactamase reporter inhibitor potency, dose response, artefact control for NOD2-RIPK2 interaction inhibitor project, BLA reporter cells, FRET fluorescence (AID 651552); format: functional, cell-based
[10] = test system: BJ; assay: cells; format: functional, cell-based; settings: Homo sapiens
[11] = Fluorescence-based cell-based high throughput dose response assay for inhibitors of the interaction of nucleotide-binding oligomerization domain containing 2 (NOD2) and the receptor-interacting serine-threonine kinase 2 (RIPK2).; format: functional; settings: Homo sapiens
[12] = molecular target: Beta-galactosidase (Escherichia coli, UniProt Q8VNN2); assay: beta-galactosidase enzyme inhibitors and activators, dose response, artefact control for CCR6 antagonist project, biochemical, E. coli enzyme, set 3 (AID 504712); format: functional
[13] = growth suppression of PTEN-null colon cells, dose response, cell-based, HCT116 PTEN knockout (AID 1047); format: functional;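 further: HCT116 colon tumor cells with PTEN knocked out; cells exposed to compound for 60 hours before readout; potency for loss of cell viability measured by luminescence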
[14] = molecular target: G-protein coupled receptor 55 (Homo sapiens, UniProt Q9Y2T6); assay: GPR55 agonists via beta-arrestin recruitment, primary screen, imaging, U2OS cells, beta-arrestin-GFP redistribution (AID 1961); format: functional
[15] = molecular target: T2, Sentrin-specific protease 7 (Homo sapiens, UniProt Q9BQF6); assay: SENP7 protease inhibitors, SAR follow-up, biochemical, luminescence, set 2 (AID 588600); format: functional
T2 sequence (Q9BQF6 whole entry): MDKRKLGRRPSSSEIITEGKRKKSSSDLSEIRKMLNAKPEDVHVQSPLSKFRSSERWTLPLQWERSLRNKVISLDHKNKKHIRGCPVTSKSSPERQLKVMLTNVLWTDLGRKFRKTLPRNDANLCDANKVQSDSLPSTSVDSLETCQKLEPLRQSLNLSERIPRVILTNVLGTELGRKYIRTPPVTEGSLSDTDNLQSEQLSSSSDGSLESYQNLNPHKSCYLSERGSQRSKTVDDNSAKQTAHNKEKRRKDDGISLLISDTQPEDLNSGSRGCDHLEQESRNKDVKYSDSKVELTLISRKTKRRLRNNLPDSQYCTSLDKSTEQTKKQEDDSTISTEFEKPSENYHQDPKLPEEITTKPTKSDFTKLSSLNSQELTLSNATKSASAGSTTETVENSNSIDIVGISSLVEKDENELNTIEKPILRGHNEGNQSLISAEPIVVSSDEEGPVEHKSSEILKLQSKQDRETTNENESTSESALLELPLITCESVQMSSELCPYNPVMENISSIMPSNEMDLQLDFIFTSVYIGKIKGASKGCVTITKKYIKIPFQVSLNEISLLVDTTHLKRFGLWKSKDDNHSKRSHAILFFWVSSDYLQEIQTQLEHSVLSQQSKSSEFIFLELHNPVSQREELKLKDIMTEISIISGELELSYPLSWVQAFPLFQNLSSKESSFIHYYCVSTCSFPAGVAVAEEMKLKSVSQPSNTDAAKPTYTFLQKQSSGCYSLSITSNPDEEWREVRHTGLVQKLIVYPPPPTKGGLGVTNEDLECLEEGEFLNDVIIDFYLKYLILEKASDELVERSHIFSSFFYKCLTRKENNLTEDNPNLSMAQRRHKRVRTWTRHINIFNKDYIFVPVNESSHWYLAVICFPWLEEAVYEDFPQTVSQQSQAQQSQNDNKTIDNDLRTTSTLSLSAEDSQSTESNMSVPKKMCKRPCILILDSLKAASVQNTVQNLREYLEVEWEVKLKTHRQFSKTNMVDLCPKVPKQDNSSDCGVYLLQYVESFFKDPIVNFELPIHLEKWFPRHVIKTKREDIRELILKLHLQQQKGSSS

[16] = molecular target: T3, Caspase-3 (Homo sapiens, UniProt P42574); assay: SAR Analysis of small molecule inhibitors of Sentrin-specific proteases (SENPs) using a Caspase-3 Selectivity assay. [Related pubchem assays (depositor defined):AID2540, AID2599, AID434973, AID489001]; format: functional
T3 sequence (P42574 whole entry): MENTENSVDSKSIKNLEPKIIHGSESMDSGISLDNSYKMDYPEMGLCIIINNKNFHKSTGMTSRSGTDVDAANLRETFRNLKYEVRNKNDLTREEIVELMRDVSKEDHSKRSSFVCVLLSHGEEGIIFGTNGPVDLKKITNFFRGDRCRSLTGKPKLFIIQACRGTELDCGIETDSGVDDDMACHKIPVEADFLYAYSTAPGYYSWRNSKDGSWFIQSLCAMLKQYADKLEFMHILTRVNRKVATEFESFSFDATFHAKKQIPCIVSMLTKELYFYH

[17] = molecular target: T2, Sentrin-specific protease 7; assay: SENP7 protease inhibitors, SAR follow-up, biochemical, luminescence (AID 504497); format: functional
[18] = molecular target: T4, Sentrin-specific protease 8 (Homo sapiens, UniProt Q96LD8); assay: SENP8 protease inhibitors, SAR follow-up, biochemical, luminescence, set 2 (AID 588601); format: functional
T4 sequence (Q96LD8 whole entry): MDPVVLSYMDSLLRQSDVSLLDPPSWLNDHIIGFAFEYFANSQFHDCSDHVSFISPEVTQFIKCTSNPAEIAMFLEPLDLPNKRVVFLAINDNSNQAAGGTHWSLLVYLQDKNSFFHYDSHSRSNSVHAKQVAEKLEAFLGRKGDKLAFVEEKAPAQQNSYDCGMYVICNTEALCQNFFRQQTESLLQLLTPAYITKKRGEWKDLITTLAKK

[19] = molecular target: T5, Sentrin-specific protease 6 (Homo sapiens, UniProt Q9GZR1); assay: SAR Analysis of small molecule inhibitors of Sentrin-specific protease 6 (SENP6) using a Luminescent assay. [Related pubchem assays (depositor defined):AID2582, AID2599]; format: functional
T5 sequence (Q9GZR1 whole entry): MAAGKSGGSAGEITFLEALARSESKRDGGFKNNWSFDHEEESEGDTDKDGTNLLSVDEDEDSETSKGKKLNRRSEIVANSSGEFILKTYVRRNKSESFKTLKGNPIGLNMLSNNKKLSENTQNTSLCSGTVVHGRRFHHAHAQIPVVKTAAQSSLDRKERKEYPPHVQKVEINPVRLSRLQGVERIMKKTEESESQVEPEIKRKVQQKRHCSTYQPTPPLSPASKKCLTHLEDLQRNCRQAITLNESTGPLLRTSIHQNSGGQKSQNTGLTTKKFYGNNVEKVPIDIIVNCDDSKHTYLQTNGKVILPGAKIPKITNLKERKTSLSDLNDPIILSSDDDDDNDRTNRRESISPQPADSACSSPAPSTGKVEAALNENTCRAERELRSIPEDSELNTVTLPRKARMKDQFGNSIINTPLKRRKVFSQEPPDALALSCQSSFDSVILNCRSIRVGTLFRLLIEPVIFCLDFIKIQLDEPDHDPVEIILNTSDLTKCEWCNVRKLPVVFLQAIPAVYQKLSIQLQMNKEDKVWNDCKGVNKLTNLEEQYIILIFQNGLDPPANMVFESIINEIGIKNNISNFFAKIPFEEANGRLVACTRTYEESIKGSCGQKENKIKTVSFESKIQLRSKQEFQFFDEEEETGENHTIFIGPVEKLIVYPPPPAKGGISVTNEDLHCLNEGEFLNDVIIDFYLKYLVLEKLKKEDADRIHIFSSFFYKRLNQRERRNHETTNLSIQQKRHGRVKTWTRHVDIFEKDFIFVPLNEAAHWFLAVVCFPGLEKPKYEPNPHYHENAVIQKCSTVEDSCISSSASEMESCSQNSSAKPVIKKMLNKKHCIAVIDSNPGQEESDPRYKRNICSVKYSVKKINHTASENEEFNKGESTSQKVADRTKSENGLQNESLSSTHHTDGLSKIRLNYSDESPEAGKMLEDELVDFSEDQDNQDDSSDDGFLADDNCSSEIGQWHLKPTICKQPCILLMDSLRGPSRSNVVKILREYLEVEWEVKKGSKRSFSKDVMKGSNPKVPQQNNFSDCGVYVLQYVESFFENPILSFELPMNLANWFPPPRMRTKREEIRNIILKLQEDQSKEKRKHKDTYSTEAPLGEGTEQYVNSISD

[20] = molecular target: T4, Sentrin-specific protease 8; assay: SENP8 protease inhibitors, SAR follow-up, biochemical, luminescence (AID 504501); format: functional
[21] = molecular target: T3, Caspase-3; assay: caspase-3 inhibitors as off-family protease, SAR follow-up, selectivity assay for SENP protease inhibitor project, biochemical, luminescence, set 2 (AID 588599); format: functional
[22] = molecular target: T5, Sentrin-specific protease 6; assay: SENP6 protease inhibitors, SAR follow-up, biochemical, luminescence, set 2 (AID 588598); format: functional
[23] = molecular target: Melanin-concentrating hormone receptor 1 (Homo sapiens, UniProt Q99705); assay: Late-stage fluorescence-based counterscreen for antagonists of the G-protein coupled receptor 7 (GPR7): cell-based dose response assay to identify antagonists of the melanin-concentrating hormone receptor 1 (MCHR1) Set 6.; format: functional
[24] = molecular target: T6, Neuropeptides B/W receptor type 1 (Homo sapiens, UniProt P48145); assay: GPR7 antagonist potency, late-stage follow-up, cell-based, fluorescence, dose response, set 6 (AID 588583); format: functional
T6 sequence (P48145 whole entry): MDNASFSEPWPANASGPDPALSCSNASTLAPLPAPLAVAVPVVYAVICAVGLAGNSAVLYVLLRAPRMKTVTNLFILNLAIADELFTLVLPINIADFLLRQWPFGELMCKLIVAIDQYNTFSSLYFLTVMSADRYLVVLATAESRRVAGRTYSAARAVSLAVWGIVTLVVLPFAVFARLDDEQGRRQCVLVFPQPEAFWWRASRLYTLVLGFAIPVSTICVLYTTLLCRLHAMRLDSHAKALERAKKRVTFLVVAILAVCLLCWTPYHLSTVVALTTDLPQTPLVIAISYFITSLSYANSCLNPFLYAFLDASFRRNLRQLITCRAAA

[25] = molecular target: Vascular endothelial growth factor receptor 2 (Homo sapiens, UniProt P35968); format: functional
[26] = molecular target: Aurora kinase B (Homo sapiens, UniProt Q96GD4); format: functional
[27] = molecular target: Aurora kinase A (Homo sapiens, UniProt O14965); format: functional;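 further: value from the Navigating the Kinome kinase panel profiling, panel entry STK6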
Aurora kinase A, sequence (O14965 whole entry): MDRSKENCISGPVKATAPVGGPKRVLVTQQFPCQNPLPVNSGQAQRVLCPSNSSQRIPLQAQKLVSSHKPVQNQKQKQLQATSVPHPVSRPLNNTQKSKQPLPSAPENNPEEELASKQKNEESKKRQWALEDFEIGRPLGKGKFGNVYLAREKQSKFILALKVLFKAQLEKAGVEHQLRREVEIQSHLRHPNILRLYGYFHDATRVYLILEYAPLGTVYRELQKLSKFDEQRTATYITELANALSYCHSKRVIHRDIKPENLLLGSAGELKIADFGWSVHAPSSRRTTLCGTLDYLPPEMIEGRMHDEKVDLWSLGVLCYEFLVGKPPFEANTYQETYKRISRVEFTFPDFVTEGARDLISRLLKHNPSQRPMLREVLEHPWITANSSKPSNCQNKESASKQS

Melanin-concentrating hormone receptor 1, sequence (Q99705 whole entry): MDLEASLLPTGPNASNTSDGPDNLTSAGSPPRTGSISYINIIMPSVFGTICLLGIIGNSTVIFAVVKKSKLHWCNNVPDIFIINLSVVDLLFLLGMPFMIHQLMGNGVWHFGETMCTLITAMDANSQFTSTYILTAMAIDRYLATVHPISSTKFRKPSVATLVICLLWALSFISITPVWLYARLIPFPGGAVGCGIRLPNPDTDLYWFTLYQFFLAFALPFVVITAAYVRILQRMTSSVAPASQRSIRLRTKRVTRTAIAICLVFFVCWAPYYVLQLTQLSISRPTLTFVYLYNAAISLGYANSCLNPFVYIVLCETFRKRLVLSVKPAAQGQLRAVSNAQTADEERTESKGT
C-C chemokine receptor type 6, sequence (P51684 whole entry): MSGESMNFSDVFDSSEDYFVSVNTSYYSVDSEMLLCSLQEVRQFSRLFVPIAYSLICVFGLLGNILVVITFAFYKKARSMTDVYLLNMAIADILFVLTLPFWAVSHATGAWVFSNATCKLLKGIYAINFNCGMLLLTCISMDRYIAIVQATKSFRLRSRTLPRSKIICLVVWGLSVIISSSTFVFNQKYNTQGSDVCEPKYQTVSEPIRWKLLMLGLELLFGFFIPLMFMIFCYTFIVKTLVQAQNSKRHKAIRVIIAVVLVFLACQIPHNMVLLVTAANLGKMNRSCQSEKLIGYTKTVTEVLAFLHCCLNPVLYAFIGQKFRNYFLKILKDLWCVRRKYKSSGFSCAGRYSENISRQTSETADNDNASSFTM
Aurora kinase B, sequence (Q96GD4 whole entry): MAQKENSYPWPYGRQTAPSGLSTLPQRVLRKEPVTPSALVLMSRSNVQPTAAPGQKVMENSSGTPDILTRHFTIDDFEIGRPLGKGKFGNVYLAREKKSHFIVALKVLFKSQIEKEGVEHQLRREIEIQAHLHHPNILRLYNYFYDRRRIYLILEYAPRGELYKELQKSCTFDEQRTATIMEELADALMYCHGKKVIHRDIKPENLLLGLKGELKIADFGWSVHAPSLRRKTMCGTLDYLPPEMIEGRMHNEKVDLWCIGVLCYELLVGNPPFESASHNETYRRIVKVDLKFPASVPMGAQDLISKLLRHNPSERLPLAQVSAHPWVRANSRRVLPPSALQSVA
Beta Lactamase, sequence (Q932Y6 whole entry): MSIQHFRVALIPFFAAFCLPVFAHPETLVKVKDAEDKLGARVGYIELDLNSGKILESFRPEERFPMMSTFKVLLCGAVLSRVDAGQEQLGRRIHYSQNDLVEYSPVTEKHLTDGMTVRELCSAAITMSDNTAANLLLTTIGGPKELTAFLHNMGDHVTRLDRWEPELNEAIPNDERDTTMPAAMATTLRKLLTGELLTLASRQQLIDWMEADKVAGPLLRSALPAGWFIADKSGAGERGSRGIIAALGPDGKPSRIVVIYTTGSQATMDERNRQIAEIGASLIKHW
Beta-galactosidase, sequence (Q8VNN2 whole entry): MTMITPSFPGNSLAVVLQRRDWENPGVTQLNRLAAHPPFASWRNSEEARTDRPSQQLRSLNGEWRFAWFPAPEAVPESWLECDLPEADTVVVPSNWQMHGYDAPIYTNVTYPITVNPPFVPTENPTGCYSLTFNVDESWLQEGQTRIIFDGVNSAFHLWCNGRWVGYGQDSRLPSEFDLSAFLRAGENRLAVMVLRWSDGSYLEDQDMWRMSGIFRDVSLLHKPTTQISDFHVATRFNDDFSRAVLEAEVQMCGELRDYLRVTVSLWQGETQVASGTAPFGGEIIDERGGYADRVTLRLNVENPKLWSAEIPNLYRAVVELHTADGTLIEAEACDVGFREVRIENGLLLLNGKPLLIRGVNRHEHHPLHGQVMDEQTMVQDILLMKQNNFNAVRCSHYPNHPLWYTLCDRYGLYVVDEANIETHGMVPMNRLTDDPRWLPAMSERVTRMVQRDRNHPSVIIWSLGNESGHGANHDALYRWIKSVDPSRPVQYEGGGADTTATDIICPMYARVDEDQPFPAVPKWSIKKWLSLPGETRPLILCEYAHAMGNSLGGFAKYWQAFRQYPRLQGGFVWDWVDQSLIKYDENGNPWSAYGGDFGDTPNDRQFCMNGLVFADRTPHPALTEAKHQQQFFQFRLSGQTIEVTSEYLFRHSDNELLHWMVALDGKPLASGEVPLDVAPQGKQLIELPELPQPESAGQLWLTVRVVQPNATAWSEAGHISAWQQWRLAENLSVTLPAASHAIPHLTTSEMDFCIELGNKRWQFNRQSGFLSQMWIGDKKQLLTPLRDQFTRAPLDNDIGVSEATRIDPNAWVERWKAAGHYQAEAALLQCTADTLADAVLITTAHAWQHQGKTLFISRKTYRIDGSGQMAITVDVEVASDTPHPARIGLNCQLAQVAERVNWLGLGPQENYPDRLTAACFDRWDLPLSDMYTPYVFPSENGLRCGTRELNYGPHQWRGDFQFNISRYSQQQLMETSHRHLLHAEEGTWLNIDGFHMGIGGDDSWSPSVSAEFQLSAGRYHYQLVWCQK
G-protein coupled receptor 55, sequence (Q9Y2T6 whole entry): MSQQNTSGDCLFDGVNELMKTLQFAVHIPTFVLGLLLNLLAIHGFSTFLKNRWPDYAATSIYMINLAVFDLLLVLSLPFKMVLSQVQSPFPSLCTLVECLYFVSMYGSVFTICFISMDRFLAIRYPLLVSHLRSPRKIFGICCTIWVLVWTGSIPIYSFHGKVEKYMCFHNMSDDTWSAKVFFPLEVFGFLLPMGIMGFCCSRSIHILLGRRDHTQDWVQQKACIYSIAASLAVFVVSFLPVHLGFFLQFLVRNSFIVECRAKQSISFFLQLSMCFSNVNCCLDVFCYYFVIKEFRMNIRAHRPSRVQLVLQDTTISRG
Vascular endothelial growth factor receptor 2, sequence (P35968 whole entry): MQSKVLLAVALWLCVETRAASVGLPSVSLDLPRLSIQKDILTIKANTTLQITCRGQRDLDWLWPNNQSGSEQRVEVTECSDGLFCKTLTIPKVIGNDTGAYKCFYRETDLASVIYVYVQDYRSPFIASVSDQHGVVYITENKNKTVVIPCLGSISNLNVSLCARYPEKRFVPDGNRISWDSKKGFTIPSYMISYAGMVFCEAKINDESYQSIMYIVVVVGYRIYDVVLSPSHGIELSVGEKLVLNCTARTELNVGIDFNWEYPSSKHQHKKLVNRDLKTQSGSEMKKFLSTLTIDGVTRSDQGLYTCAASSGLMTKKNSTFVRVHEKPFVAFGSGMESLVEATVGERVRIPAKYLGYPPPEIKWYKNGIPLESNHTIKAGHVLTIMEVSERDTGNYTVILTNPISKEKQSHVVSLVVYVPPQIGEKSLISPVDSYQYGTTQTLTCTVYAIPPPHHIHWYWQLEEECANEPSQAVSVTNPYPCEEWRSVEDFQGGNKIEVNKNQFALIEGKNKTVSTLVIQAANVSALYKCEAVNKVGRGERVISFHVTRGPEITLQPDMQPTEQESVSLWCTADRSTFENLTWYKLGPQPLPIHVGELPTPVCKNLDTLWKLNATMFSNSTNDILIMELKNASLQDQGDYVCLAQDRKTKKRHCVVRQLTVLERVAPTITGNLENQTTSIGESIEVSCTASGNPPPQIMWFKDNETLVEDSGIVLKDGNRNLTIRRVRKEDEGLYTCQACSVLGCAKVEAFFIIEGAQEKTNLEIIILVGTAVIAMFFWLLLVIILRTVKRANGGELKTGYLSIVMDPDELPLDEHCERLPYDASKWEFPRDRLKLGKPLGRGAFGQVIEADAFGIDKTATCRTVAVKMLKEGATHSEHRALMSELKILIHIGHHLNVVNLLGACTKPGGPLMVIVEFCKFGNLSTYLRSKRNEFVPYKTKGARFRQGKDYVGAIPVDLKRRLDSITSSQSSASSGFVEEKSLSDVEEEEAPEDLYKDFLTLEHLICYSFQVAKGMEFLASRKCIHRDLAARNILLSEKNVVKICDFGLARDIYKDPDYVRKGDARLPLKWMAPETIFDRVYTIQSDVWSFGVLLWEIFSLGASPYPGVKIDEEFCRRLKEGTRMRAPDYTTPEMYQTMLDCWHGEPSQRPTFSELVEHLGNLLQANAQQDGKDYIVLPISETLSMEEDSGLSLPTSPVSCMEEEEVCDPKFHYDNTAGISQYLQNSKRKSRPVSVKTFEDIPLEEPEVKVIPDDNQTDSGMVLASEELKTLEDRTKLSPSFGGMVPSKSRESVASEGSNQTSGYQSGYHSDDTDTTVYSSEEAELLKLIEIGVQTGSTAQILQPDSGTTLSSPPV

SMILES	IC50 [15]	IC50 [16]	IC50 [17]	IC50 [19]	IC50 [21]	IC50 [22]	IC50 [23]	IC50 [24]	IC50 [18]	IC50 [20]	also measured
COC(=O)c1ccc2c(c1)C(C)(C)C(/C=C/c1ccc(OC)c(OC)c1OC)=[N+]2C	–	–	–	–	–	–	–	–	–	–	EC50 [1]: 3.71 µM (active); CC50 [2]: 60.4 µM (active); EC50 [3]: 1.3 µM (inconclusive); EC50 [4]: 3.84 µM (active); EC50 [5]: 3.9 µM (inconclusive); AC50 [6]: 2.09 µM (active); IC50 [7]: 25.7 µM (active); IC50 [8]: 21.4 µM (inactive); IC50 [9]: 39.1 µM (inactive); EC50 [10]: 14.4 µM (active); IC50 [11]: 1.93 µM (active); IC50 [12]: > 66.6 µM (inactive); EC50 [13]: 5.04 µM (active); EC50 [14]: 1.51 µM (active)
COc1ccc(Oc2c(CO)cnn(Cc3cccc4ccccc34)c2=O)cc1	–	–	–	–	–	–	2.99 µM (active)	2.99 µM (active)	–	–	–
N#CC(c1cccs1)c1c(Cl)cnn(Cc2cccc3ccccc23)c1=O (configuration not stated)	–	–	–	–	–	–	1.07 µM (active)	1.07 µM (active)	–	–	–
Cc1ccc(-c2nc3ccc(Br)cc3c(C(=O)O)c2CC(=O)O)cc1	–	–	–	–	–	–	–	–	–	–	Ki [25]: 0.501 µM (active); Ki [26]: 0.158 µM (active); Ki [27]: 0.0794 µM (active)

Now from value to molecule, other results behind:

IC50 [15]	IC50 [16]	IC50 [17]	IC50 [19]	IC50 [21]	IC50 [22]	IC50 [23]	IC50 [24]	SMILES	IC50 [18]	IC50 [20]	also measured
14.9 µM (active)	52 µM (active)	16 µM (active)	49 µM (active)	48.6 µM (active)	16.7 µM (active)	–	–	Cc1cccc(-c2nc(/C=C/c3ccccc3)no2)c1	16.7 µM (active)	48 µM (active)	–
1.96 µM (active)	6.2 µM (active)	1.9 µM (active)	2.8 µM (active)	5.28 µM (active)	1.84 µM (active)	–	–	CCCCc1ccc2nc(NC(=O)c3ccsc3)sc2c1	1.8 µM (active)	3.1 µM (active)	–
